Series [1] deals with T1, Toxin B (Clostridioides difficile, UniProt P18177). As to the kind of experiment: Inhibition of C-terminal 6-His tagged recombinant Clostridium difficile toxin B glucosyltransferase domain assessed as reduction in UDP-glucose hydrolysis activity using UDP-glucose substrate and ADP Alexa633 tracer incubated for 3 hrs by fluorescence polarization assay.
The target of series [2] is T1, Toxin B. As to the kind of experiment: Inhibition of Clostridium difficile toxin B […] CHO cells assessed as reduction in caspase 3/7 activation pre-incubated for 1 hr before TcdB addition by luminescence based assay. Format: cell-based.
Series [3] in a line: Metabolic stability in human liver microsomes assessed as parent compound remaining after 15 mins. The settings on record: read-out: Stability. It counts as ADME, Microsome. Background: Microsomes from liver hold many membrane-bound enzymes, among them those of drug oxidation.
Series [4] deals with Toxin A (Clostridioides difficile, UniProt P16154). As to the kind of experiment: Inhibition of Clostridium difficile toxin A […] CHO cells assessed as reduction in caspase 3/7 activation pre-incubated for 1 hr before TcdA addition by luminescence based assay. Format: cell-based.
A short description of series [5]: Metabolic stability in mouse liver microsomes assessed as parent compound remaining after 15 mins. It counts as ADME, Microsome. The settings on record: read-out: Stability.

Molecules are shown by their SMILES.

A word on the IC50: it is the midpoint of a concentration-inhibition curve.

T1 sequence (P18177 whole entry, the tested form may be a part): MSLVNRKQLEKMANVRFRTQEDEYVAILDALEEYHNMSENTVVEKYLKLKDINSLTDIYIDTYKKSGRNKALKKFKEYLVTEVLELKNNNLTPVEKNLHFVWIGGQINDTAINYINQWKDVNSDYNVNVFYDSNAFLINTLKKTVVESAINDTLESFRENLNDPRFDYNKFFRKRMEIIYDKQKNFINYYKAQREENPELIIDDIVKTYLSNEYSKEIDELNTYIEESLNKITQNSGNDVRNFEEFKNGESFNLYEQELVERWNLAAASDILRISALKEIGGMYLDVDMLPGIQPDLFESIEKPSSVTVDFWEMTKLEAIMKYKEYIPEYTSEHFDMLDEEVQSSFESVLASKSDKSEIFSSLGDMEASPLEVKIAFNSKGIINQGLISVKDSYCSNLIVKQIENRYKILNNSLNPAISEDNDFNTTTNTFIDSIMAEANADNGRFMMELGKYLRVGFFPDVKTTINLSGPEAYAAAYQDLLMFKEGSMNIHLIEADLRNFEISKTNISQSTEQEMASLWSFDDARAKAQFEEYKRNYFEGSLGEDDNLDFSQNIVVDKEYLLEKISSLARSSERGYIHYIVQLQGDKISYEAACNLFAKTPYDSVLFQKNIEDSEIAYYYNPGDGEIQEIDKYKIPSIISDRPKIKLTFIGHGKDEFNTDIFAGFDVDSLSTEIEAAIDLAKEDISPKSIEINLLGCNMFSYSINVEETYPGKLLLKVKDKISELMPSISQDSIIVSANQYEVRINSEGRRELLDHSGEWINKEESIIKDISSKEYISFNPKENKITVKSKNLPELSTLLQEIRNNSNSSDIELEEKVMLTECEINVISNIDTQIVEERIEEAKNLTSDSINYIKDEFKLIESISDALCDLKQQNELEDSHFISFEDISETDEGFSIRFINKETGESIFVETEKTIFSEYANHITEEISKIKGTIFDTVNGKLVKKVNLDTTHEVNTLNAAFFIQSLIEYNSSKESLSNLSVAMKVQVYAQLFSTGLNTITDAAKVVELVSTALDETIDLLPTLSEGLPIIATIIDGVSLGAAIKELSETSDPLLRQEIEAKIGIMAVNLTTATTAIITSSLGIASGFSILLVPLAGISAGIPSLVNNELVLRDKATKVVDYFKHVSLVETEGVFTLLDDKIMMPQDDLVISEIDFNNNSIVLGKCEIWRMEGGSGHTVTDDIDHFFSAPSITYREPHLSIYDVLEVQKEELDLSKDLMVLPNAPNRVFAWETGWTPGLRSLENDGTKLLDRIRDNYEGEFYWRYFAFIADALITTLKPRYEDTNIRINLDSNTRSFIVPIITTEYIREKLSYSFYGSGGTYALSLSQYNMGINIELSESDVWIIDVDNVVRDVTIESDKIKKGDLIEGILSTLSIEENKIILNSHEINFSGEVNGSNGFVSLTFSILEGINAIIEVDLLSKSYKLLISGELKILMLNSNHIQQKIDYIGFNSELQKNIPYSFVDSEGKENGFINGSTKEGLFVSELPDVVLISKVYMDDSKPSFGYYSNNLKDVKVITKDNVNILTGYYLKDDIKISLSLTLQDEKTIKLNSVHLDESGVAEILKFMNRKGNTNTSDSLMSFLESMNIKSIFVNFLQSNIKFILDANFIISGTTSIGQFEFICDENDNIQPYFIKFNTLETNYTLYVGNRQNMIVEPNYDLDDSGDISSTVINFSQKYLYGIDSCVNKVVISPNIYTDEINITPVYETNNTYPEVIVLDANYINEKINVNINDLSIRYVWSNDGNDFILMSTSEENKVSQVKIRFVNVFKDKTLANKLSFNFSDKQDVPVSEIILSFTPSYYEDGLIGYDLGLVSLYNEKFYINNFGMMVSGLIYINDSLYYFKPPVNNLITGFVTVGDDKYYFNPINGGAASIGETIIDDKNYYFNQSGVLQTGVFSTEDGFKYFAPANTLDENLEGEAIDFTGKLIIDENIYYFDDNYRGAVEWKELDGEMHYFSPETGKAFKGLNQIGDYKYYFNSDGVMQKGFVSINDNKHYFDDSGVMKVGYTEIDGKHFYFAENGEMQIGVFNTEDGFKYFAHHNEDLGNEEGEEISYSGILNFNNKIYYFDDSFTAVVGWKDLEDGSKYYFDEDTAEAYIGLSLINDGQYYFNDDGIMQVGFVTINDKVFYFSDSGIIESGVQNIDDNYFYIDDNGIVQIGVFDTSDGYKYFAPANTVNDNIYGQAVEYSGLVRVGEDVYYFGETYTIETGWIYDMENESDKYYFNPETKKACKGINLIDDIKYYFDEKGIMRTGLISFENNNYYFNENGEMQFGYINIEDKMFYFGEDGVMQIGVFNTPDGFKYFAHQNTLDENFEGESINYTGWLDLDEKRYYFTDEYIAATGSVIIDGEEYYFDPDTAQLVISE
Toxin A, sequence (P16154 whole entry): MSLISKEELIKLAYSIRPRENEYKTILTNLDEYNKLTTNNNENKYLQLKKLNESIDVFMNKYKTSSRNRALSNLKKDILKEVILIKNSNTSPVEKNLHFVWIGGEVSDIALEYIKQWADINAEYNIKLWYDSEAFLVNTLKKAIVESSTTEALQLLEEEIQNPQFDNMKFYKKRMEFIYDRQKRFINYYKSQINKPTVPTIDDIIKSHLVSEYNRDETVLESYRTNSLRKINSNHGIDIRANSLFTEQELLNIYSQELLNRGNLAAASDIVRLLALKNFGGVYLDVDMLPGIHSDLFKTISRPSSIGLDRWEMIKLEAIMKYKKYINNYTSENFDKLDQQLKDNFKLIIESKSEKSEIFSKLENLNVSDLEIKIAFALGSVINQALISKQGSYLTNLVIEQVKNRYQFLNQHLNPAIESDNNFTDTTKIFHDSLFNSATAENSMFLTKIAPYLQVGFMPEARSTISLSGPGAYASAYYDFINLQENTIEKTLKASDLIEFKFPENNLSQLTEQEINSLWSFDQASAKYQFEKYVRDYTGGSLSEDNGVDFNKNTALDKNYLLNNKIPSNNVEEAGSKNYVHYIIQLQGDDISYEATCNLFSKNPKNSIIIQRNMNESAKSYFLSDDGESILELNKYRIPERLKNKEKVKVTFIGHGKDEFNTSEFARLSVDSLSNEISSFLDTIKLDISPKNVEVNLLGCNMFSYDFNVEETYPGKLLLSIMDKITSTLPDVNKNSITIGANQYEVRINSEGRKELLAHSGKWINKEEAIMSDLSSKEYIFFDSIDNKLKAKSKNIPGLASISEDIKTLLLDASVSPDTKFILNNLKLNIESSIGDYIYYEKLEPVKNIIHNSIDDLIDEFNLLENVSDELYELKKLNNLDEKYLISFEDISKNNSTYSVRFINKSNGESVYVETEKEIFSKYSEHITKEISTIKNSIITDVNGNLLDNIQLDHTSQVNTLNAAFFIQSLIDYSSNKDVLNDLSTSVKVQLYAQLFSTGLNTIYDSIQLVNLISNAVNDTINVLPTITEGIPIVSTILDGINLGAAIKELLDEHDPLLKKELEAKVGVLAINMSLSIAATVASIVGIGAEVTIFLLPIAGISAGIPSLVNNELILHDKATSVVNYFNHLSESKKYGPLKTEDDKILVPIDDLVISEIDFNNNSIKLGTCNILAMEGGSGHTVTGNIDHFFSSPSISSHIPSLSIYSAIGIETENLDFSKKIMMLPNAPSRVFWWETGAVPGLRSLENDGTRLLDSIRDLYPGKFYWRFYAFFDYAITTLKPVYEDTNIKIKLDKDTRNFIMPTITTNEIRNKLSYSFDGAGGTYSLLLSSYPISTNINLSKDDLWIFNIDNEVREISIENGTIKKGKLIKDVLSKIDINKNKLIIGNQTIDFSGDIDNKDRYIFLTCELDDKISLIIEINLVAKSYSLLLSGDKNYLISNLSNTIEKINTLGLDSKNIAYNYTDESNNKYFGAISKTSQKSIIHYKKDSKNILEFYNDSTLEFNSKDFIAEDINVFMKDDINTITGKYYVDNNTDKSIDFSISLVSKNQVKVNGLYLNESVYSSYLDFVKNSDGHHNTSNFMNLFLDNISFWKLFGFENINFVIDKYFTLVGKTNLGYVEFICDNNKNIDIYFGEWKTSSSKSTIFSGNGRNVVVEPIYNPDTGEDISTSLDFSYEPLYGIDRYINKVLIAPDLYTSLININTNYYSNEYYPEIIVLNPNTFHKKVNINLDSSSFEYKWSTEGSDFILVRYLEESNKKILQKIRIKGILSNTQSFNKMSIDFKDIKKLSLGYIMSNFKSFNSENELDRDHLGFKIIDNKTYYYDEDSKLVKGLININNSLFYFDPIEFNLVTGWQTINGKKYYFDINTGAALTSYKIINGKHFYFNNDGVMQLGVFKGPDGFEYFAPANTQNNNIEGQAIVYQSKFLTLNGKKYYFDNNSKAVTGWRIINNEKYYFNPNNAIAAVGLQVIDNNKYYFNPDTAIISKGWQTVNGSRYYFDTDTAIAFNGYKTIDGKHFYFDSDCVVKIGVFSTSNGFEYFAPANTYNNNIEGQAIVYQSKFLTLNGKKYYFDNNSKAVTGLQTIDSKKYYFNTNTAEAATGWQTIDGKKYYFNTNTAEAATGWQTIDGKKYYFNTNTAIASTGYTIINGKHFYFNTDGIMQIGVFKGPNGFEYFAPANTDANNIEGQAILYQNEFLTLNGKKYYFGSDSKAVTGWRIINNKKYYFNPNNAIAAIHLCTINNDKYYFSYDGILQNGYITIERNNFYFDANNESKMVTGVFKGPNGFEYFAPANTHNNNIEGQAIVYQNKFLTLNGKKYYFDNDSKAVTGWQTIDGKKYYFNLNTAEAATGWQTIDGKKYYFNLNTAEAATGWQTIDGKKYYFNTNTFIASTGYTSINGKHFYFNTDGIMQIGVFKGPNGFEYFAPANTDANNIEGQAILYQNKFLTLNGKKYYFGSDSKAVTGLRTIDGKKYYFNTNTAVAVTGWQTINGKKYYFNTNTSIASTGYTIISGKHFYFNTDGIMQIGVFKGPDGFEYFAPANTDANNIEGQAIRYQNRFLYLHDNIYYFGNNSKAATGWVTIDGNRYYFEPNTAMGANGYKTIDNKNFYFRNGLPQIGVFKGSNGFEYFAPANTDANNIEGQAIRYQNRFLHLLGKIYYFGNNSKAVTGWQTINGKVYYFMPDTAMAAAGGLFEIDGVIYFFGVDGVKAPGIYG

`O=C(O)c1ccc(CN2C(=O)c3ccc(Cl)cc3NC(=O)[C@H]2Cc2ccccn2)cc1`: in series [1], the IC50 was 0.18 µM.

On to `Cc1cc(CN2C(=O)c3ccc(Cl)cc3NC(=O)[C@H]2Cc2ccccn2)ccc1C(=O)Nc1ccc(F)cn1`, for which the IC50 in series [2] worked out at 0.062 µM; in series [4], 0.86 µM; in series [1] it was 0.008 µM. For the same compound, the remaining at 0.25 h in series [3] turned out to be 85%; in series [5], 60%.

In the case of `COc1cc(CN2C(=O)c3ccc(Cl)cc3NC(=O)[C@H]2Cc2ccccn2)ccc1C(=O)Nc1ccc(C)cn1`, the IC50 in series [2] came to 1.9 µM; in series [4], 11 µM; in series [1], 0.009 µM. Further, the remaining at 0.25 h in series [3] was found to be 62%; in series [5] it was 49%.

For `Cc1cnc(NC(=O)c2ccc(CN3C(=O)c4ccc(Cl)cc4NC(=O)[C@H]3Cc3ccccn3)cc2Cl)nc1`, the results for the IC50 in series [2], in series [4] and in series [1] were 0.13 µM, 1.5 µM and 0.004 µM, respectively. For the same compound, the remaining at 0.25 h in series [3] amounted to 79%; in series [5], 33%.

In the case of `Cc1ccnc(C(=O)c2ccc(CN3C(=O)c4ccc(Cl)cc4NC(=O)[C@H]3Cc3ccccn3)cc2)c1`, the remaining at 0.25 h was 26% in series [3] and 48% in series [5]. In addition, the IC50 in series [1] amounted to 0.074 µM.

With `Cc1cnc(NC(=O)c2ccc(CN3C(=O)c4ccc(Cl)cc4NC(=O)[C@H]3Cc3ccccn3)cc2C)nc1`, the figures for the IC50 in series [2], in series [4] and in series [1] were 0.13 µM, 3 µM and 0.004 µM, respectively. Besides, the remaining at 0.25 h in series [3] was 74%; in series [5], 44%.

Regarding `Cc1cnc(NC(=O)c2ccc(CN3C(=O)c4ccc(Cl)cc4NC(=O)[C@H]3Cc3ccccn3)cc2Cl)cn1`, the IC50 in series [2] amounted to 0.22 µM; in series [4], 2.1 µM; in series [1] it was 0.009 µM. Besides, the remaining at 0.25 h worked out at 81% in series [3] and 79% in series [5].

Turning to `Cc1ccc(NC(=O)c2ccc(CN3C(=O)c4ccc(Cl)cc4NC(=O)[C@H]3Cc3ccccn3)cc2C)nc1`, the IC50 in series [2] stood at 0.061 µM; in series [4], 0.86 µM; in series [1], 0.007 µM. In addition, the remaining at 0.25 h in series [3] came out at 61%; in series [5] it was 31%.

Take `O=C(c1ccc(CN2C(=O)c3ccc(Cl)cc3NC(=O)[C@H]2Cc2ccccn2)cc1)c1cccn2ncnc12`: the IC50 in series [2] came to 1.6 µM; in series [1] it was 0.061 µM. Besides, the remaining at 0.25 h in series [3] was 15%; in series [5], 44%.

Consider `Cc1cc(CN2C(=O)c3ccc(Cl)cc3NC(=O)[C@H]2Cc2ccccn2)ccc1C(=O)Nc1ccc(C(F)(F)F)cn1`, for which the IC50 in series [2] was 0.17 µM; in series [4], 2.4 µM; in series [1], 0.02 µM. The figures for the remaining at 0.25 h in series [3] and in series [5] were 100% and 99%, respectively.

For `COc1cc(CN2C(=O)c3ccc(Cl)cc3NC(=O)[C@H]2Cc2ccccn2)ccc1C(=O)Nc1ccc(F)cn1`, the IC50 stood at 1.1 µM in series [2], 17 µM in series [4] and 0.014 µM in series [1]. For the same compound, the figures for the remaining at 0.25 h in series [3] and in series [5] were 94% and 67%, respectively.

In the case of `Cn1ccnc1C(=O)c1ccc(CN2C(=O)c3ccc(Cl)cc3NC(=O)[C@H]2Cc2ccccn2)cc1`, the IC50 is more than 100 µM in series [2], more than 100 µM in series [4] and 0.19 µM in series [1]. The remaining at 0.25 h in series [3] was 49%; in series [5] it was 33%.

For the compound `O=C(O)c1ccc(CN2C(=O)c3ccc(Cl)cc3NC(=O)[C@H]2Cc2ccccn2)cc1Cl`, the IC50 in series [1] stood at 0.48 µM.

Regarding `COc1cnc(NC(=O)c2ccc(CN3C(=O)c4ccc(Cl)cc4NC(=O)[C@H]3Cc3ccccn3)cc2C)nc1`, the results for the IC50 in series [2], in series [4] and in series [1] were 0.029 µM, 0.69 µM and 0.004 µM, respectively. Further, the results for the remaining at 0.25 h in series [3] and in series [5] were 82% and 39%, respectively.

Take `COc1ccc(NC(=O)c2ccc(CN3C(=O)c4ccc(Cl)cc4NC(=O)[C@H]3Cc3ccccn3)cc2C)nc1`: the IC50 in series [2] was found to be 0.071 µM; in series [4] it was 0.48 µM; in series [1] it was 0.01 µM. The remaining at 0.25 h was 68% in series [3] and 51% in series [5].

`COc1ccc(NC(=O)c2ccc(CN3C(=O)c4ccc(Cl)cc4NC(=O)[C@H]3Cc3ccccn3)cc2OC)nc1`: the IC50 is 0.13 µM in series [2], 1.1 µM in series [4] and 0.005 µM in series [1]. Also, the remaining at 0.25 h in series [3] was 78%; in series [5] it was 71%.

Turning to `O=C(Nc1ccc(F)cn1)c1ccc(CN2C(=O)c3ccc(Cl)cc3NC(=O)[C@H]2Cc2ccccn2)cc1Cl`, the IC50 in series [2] amounted to 0.13 µM; in series [4], 1.8 µM; in series [1] it was 0.004 µM. For the same compound, the remaining at 0.25 h in series [3] was determined as 88%; in series [5], 69%.

`Cc1cccc(C(=O)c2ccc(CN3C(=O)c4ccc(Cl)cc4NC(=O)[C@H]3Cc3ccccn3)cc2)n1`: the remaining at 0.25 h amounted to 25% in series [3] and 3% in series [5]. Further, in series [1], the IC50 amounted to 0.34 µM.

With `COc1cnc(NC(=O)c2ccc(CN3C(=O)c4ccc(Cl)cc4NC(=O)[C@H]3Cc3ccccn3)cc2Cl)nc1`, the results for the IC50 in series [2], in series [4] and in series [1] were 0.053 µM, 0.92 µM and 0.004 µM, respectively. Further, the results for the remaining at 0.25 h in series [3] and in series [5] were 73% and 38%, respectively.

As for `Cc1cc(CN2C(=O)c3ccc(Cl)cc3NC(=O)[C@H]2Cc2ccccn2)ccc1C(=O)Nc1ccc(C#N)cn1`, the IC50 in series [2] turned out to be 0.078 µM; in series [1] it was 0.003 µM. Moreover, the remaining at 0.25 h in series [3] was 90%; in series [5] it was 70%.

Turning to `Cc1ccc(C(=O)c2ccc(CN3C(=O)c4ccc(Cl)cc4NC(=O)[C@H]3Cc3ccccn3)cc2)nc1`, the 50% inhibitory concentration (IC50) in series [2] was found to be 5.9 µM; in series [4], 23 µM; in series [1] it was 0.038 µM. Further, the remaining at 0.25 h in series [3] came to 57%; in series [5], 68%.

Turning to `O=C(c1ccc(CN2C(=O)c3ccc(Cl)cc3NC(=O)[C@H]2Cc2ccccn2)cc1)c1ccccn1`, the IC50 turned out to be 4.2 µM in series [2], 37 µM in series [4] and 0.045 µM in series [1]. In addition, the remaining at 0.25 h in series [3] was determined as 64%; in series [5] it was 79%.

`N#Cc1ccc(NC(=O)c2ccc(CN3C(=O)c4ccc(Cl)cc4NC(=O)[C@H]3Cc3ccccn3)cc2Cl)nc1`: the values for the IC50 in series [2] and in series [1] were 0.052 µM and 0.008 µM, respectively. Also, the remaining at 0.25 h in series [3] was 90%; in series [5], 84%.

Regarding `O=C(O)c1c(Cl)cc(CN2C(=O)c3ccc(Cl)cc3NC(=O)[C@H]2Cc2ccccn2)cc1Cl`, the concentration for half-maximal inhibition (IC50) in series [1] came out at 7.4 µM.

As for `COc1cc(CN2C(=O)c3ccc(Cl)cc3NC(=O)[C@H]2Cc2ccccn2)ccc1C(=O)Nc1ccc(C(F)(F)F)cn1`, the half-maximal inhibitory concentration (IC50) amounted to 0.66 µM in series [2], 31 µM in series [4] and 0.041 µM in series [1]. The remaining at 0.25 h in series [3] is 100%; in series [5], 83%.

On to `COc1cnc(NC(=O)c2ccc(CN3C(=O)c4ccc(Cl)cc4NC(=O)[C@H]3Cc3ccccn3)cc2Cl)cn1`, for which the results for the concentration for half-maximal inhibition (IC50) in series [2], in series [4] and in series [1] were 0.49 µM, 3.4 µM and 0.021 µM, respectively. Also, the remaining at 0.25 h in series [3] is 100%; in series [5] it was 68%.

The record behind these values is ChEMBL document CHEMBL4325886, “Synthesis and SAR studies of novel benzodiazepinedione-based inhibitors of Clostridium difficile (C. difficile) toxin B (TcdB)” (Bioorg Med Chem Lett, 2018).
